Here are results for 17 compounds from patent publication US11173151B2, “Substituted triazole derivatives and uses thereof” (BAYER AKTIENGESELLSCHAFT, priority 2017, dated 2021).

Assay [1] addresses T1, human V1a receptor (Homo sapiens, UniProt P37288).
T1 construct: expressed in transfected cells; host or cells: CHO K1 (ATCC), also stably transfected with a modified aequorin
Description: Cellular in vitro assay for determining vasopressin receptor activity, V1a receptor cell line (CHO, aequorin luminescence). In kind it is cell-based. The note with it: for IC50: CHO cell line transfected with human V1a receptor, [Arg]-vasopressin at EC50 concentration, read-out: IC50 hV1a; for ratio IC50 hV2/hV1a: selectivity ratio IC50 hV2 / IC50 hV1a. The gist of the method: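 CHO K1/aequorin cells, coelenterazine 5 μg/ml o/n; cpd 10 min; [Arg]-vasopressin at EC50; luminescence read immediately; IC50.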

Assay [2] concerns the target T2, human V2 receptor (Homo sapiens, UniProt P30518).
T2 construct: expressed in transfected cells; host or cells: CHO K1 (ATCC) expressing firefly luciferase under a CRE-responsive promoter
Description: Cellular in vitro assay for determining vasopressin receptor activity, V2 receptor cell line (CHO, CRE-luciferase). In kind it is cell-based. Conditions: CHO cell line transfected with human V2 receptor; [Arg8]-vasopressin at EC50 concentration; read-out: IC50 hV2.

Structures can show the parent of a compound that is named as a salt.

T2 sequence (P30518 whole entry): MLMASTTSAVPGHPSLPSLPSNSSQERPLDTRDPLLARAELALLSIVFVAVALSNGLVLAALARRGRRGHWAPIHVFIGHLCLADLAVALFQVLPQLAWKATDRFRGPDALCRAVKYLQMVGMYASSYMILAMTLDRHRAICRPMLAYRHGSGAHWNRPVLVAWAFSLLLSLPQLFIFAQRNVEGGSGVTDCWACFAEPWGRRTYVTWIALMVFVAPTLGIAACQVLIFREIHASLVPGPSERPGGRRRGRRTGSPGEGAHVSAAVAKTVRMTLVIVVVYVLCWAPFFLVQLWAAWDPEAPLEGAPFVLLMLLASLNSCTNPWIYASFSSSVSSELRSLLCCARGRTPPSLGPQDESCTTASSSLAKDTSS
T1 sequence (P37288 whole entry): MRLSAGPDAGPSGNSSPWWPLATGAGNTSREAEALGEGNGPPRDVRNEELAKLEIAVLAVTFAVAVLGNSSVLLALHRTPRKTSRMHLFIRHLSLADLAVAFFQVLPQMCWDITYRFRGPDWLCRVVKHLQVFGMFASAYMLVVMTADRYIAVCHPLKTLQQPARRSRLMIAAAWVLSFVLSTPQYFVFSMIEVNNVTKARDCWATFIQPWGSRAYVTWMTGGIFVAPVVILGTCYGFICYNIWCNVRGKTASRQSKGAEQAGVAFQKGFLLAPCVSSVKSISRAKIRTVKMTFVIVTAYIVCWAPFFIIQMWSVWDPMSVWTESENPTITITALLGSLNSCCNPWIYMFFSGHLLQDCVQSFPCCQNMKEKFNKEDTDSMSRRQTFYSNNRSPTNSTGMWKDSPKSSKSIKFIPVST

Regarding `O=C(NC1CC1)c1ncccc1-n1cnc(Cn2nc(-c3ccc(Cl)cc3)n(C[C@H](O)C(F)(F)F)c2=O)n1` [Example 431, 3-[3-({3-(4-Chlorophenyl)-5-oxo-4-[(2S)-3,3,3-trifluoro-2-hydroxypropyl]-4,5-dihydro-1H-1,2,4-triazol-1-yl}methyl)-1H-1,2,4-triazol-1-yl]-N-cyclopropylpyridine-2-carboxamide], in assay [1], the 50% inhibitory concentration (IC50) came out at 16.5 nM and the “ratio IC50 hV2/hV1a” value turned out to be 66.7. Also, in assay [2], the half-inhibitory concentration (IC50) stood at 1100 nM.

For `O=C(NCC1CC1)c1ncccc1-n1cnc(Cn2nc(-c3ccc(Cl)cc3)n(C[C@H](O)C(F)(F)F)c2=O)n1` [Example 432, 3-[3-({3-(4-Chlorophenyl)-5-oxo-4-[(2S)-3,3,3-trifluoro-2-hydroxypropyl]-4,5-dihydro-1H-1,2,4-triazol-1-yl}methyl)-1H-1,2,4-triazol-1-yl]-N-(cyclopropylmethyl)pyridine-2-carboxamide], in assay [1], the 50% inhibitory concentration (IC50) came out at 44.5 nM and the “ratio IC50 hV2/hV1a” value is reported as 21.2. The IC50 in assay [2] was 945 nM.

As to `NC(=O)[C@H]1CC(F)(F)CN1C(=O)c1ncccc1-n1cnc(Cn2nc(-c3ccc(Cl)cc3)n(C[C@H](O)C(F)(F)F)c2=O)n1` [Example 433, 1-({3-[3-({3-(4-Chlorophenyl)-5-oxo-4-[(2S)-3,3,3-trifluoro-2-hydroxypropyl]-4,5-dihydro-1H-1,2,4-triazol-1-yl}methyl)-1H-1,2,4-triazol-1-yl]pyridin-2-yl}carbonyl)-4,4-difluoro-D-prolinamide], in assay [1], the IC50 was 71 nM and the “ratio IC50 hV2/hV1a” value is 31.0. In assay [2], the concentration for half-maximal inhibition (IC50) was 2200 nM.

Turning to `NC(=O)[C@@H]1CC(F)(F)CN1C(=O)c1ncccc1-n1cnc(Cn2nc(-c3ccc(Cl)cc3)n(C[C@H](O)C(F)(F)F)c2=O)n1` [Example 434, 1-({3-[3-({3-(4-Chlorophenyl)-5-oxo-4-[(2S)-3,3,3-trifluoro-2-hydroxypropyl]-4,5-dihydro-1H-1,2,4-triazol-1-yl}methyl)-1H-1,2,4-triazol-1-yl]pyridin-2-yl}carbonyl)-4,4-difluoro-L-prolinamide], in assay [1], the IC50 amounted to 82 nM and the “ratio IC50 hV2/hV1a” value stood at 32.9. Moreover, the concentration for half-maximal inhibition (IC50) in assay [2] was determined as 2700 nM.

For the compound `O=C(c1ncccc1-n1cnc(Cn2nc(-c3ccc(Cl)cc3)n(C[C@H](O)C(F)(F)F)c2=O)n1)N1CCC(F)(F)C1` [Example 437, 5-(4-Chlorophenyl)-2-[(1-{2-[(3,3-difluoropyrrolidin-1-yl)carbonyl]pyridin-3-yl}-1H-1,2,4-triazol-3-yl)methyl]-4-[(2S)-3,3,3-trifluoro-2-hydroxypropyl]-2,4-dihydro-3H-1,2,4-triazol-3-one], the IC50 in assay [1] was 40.5 nM; in assay [2], 3700 nM. Moreover, the “ratio IC50 hV2/hV1a” value in assay [1] worked out at 91.4.

`CC1(C)CN(C(=O)c2ncccc2-n2cnc(Cn3nc(-c4ccc(Cl)cc4)n(C[C@H](O)C(F)(F)F)c3=O)n2)CCO1` [Example 438, 5-(4-Chlorophenyl)-2-[(1-{2-[(2,2-dimethylmorpholin-4-yl)carbonyl]pyridin-3-yl}-1H-1,2,4-triazol-3-yl)methyl]-4-[(2S)-3,3,3-trifluoro-2-hydroxypropyl]-2,4-dihydro-3H-1,2,4-triazol-3-one]: in assay [1], the IC50 came to 86 nM and the “ratio IC50 hV2/hV1a” value stood at 103.5. In addition, the 50% inhibitory concentration (IC50) in assay [2] came out at 8900 nM.

As for `O=C(NC1CC(F)(F)C1)c1ncccc1-n1cnc(Cn2nc(-c3ccc(Cl)cc3)n(C[C@H](O)C(F)(F)F)c2=O)n1` [Example 439, 3-[3-({3-(4-Chlorophenyl)-5-oxo-4-[(2S)-3,3,3-trifluoro-2-hydroxypropyl]-4,5-dihydro-1H-1,2,4-triazol-1-yl}methy)-1H-1,2,4-triazol-1-yl]-N-(3,3-difluorocyclobutyl)pyridine-2-carboxamide], the values for the IC50 in assay [1] and in assay [2] were 53.5 nM and 1280 nM, respectively. For the same compound, in assay [1], the “ratio IC50 hV2/hV1a” value is 24.0.

As for `O=C1CN(C(=O)c2ncccc2-n2cnc(Cn3nc(-c4ccc(Cl)cc4)n(C[C@H](O)C(F)(F)F)c3=O)n2)CCN1` [Example 443, 4-({3-[3-({3-(4-Chlorophenyl)-5-oxo-4-[(2S)-3,3,3-trifluoro-2-hydroxypropyl]-4,5-dihydro-1H-1,2,4-triazol-1-yl}methyl)-1H-1,2,4-triazol-1-yl]pyridin-2-yl}carbonyl)piperazin-2-one], in assay [1], the IC50 amounted to 220 nM and the “ratio IC50 hV2/hV1a” value worked out at 102.3. In assay [2], the IC50 is 22500 nM.

For `O=C(c1ncccc1-n1cnc(Cn2nc(-c3ccc(Cl)cc3)n(C[C@H](O)C(F)(F)F)c2=O)n1)N1CCCCC1` [Example 445, 5-(4-Chlorophenyl)-2-({1-[2-(piperidin-1-ylcarbonyl)pyridin-3-yl]-1H-1,2,4-triazol-3-yl}methyl)-4-[(2S)-3,3,3-trifluoro-2-hydroxypropyl]-2,4-dihydro-3H-1,2,4-triazol-3-one], in assay [1], the half-inhibitory concentration (IC50) amounted to 20 nM and the “ratio IC50 hV2/hV1a” value is reported as 182.5. For the same compound, in assay [2], the IC50 is 3650 nM.

As to `O=C(c1ncccc1-n1cnc(Cn2nc(-c3ccc(Cl)cc3)n(C[C@H](O)C(F)(F)F)c2=O)n1)N1CCOCC1` [Example 446, 5-(4-Chlorophenyl)-2-({1-[2-(morpholin-4-ylcarbonyl)pyridin-3-yl]-1H-1,2,4-triazol-3-yl}methyl)-4-[(2S)-3,3,3-trifluoro-2-hydroxypropyl]-2,4-dihydro-3H-1,2,4-triazol-3-one], in assay [1], the IC50 was 47 nM and the “ratio IC50 hV2/hV1a” value turned out to be 457.4. Besides, the IC50 in assay [2] turned out to be 21500 nM.

Turning to `O=C(NC1(C(F)(F)F)CC1)c1ncccc1-n1cnc(Cn2nc(-c3ccc(Cl)cc3)n(C[C@H](O)C(F)(F)F)c2=O)n1` [Example 447, 3-[3-({3-(4-Chlorophenyl)-5-oxo-4-[(2S)-3,3,3-trifluoro-2-hydroxypropyl]-4,5-dihydro-1H-1,2,4-triazol-1-yl}methyl)-1H-1,2,4-triazol-1-yl]-N-[1-(trifluoromethyl)cyclopropyl]pyridine-2-carboxamide], in assay [1], the IC50 was found to be 29.5 nM and the “ratio IC50 hV2/hV1a” value came to 27.6. The IC50 in assay [2] amounted to 815 nM.

Consider `O=C(c1ncccc1-n1cnc(Cn2nc(-c3ccc(Cl)cc3)n(C[C@H](O)C(F)(F)F)c2=O)n1)N1CCC[C@H]1C(F)(F)F` [Example 450, 5-(4-Chlorophenyl)-4-[(2S)-3,3,3-trifluoro-2-hydroxypropyl]-2-{[1-(2-{[(2S)-2-(trifluoromethyl)pyrrolidin-1-yl]carbonyl}pyridin-3-yl)-1H-1,2,4-triazol-3-yl]methyl}-2,4-dihydro-3H-1,2,4-triazol-3-one], for which, in assay [1], the IC50 is 39.5 nM and the “ratio IC50 hV2/hV1a” value came out at 31.6. In assay [2], the concentration for half-maximal inhibition (IC50) came to 1250 nM.

Turning to `O=C(c1ncccc1-n1cnc(Cn2nc(-c3ccc(Cl)cc3)n(C[C@H](O)C(F)(F)F)c2=O)n1)N1CCC[C@@H]1C(F)(F)F` [Example 451, 5-(4-Chlorophenyl)-4-[(2S)-3,3,3-trifluoro-2-hydroxypropyl]-2-{[1-(2-{[(2R)-2-(trifluoromethyl)pyrrolidin-1-yl]carbonyl}pyridin-3-yl)-1H-1,2,4-triazol-3-yl]methyl}-2,4-dihydro-3H-1,2,4-triazol-3-one], in assay [1], the 50% inhibitory concentration (IC50) was found to be 110 nM and the “ratio IC50 hV2/hV1a” value was 9.3. Further, the half-inhibitory concentration (IC50) in assay [2] was found to be 1020 nM.

For the compound `O=C(c1ncccc1-n1cnc(Cn2nc(-c3ccc(Cl)cc3)n(C[C@H](O)C(F)(F)F)c2=O)n1)N1CCS(=O)(=O)CC1` [Example 452, 5-(4-Chlorophenyl)-2-[(1-{2-[(1,1-dioxidothiomorpholin-4-yl)carbonyl]pyridin-3-yl}-1H-1,2,4-triazol-3-yl)methyl]-4-[(2S)-3,3,3-trifluoro-2-hydroxypropyl]-2,4-dihydro-3H-1,2,4-triazol-3-one], in assay [1], the IC50 stood at 265 nM and the “ratio IC50 hV2/hV1a” value is listed as 22.3. In addition, in assay [2], the half-maximal inhibitory concentration (IC50) worked out at 5900 nM.

On to `CC1(C)CNCCN1C(=O)c1ncccc1-n1cnc(Cn2nc(-c3ccc(Cl)cc3)n(C[C@H](O)C(F)(F)F)c2=O)n1` [Example 453, 5-(4-Chlorophenyl)-2-[(1-{2-[(2,2-dimethylpiperazin-1-yl)carbonyl]pyridin-3-yl}-1H-1,2,4-triazol-3-yl)methyl]-4-[(2S)-3,3,3-trifluoro-2-hydroxypropyl]-2,4-dihydro-3H-1,2,4-triazol-3-one-Hydrochloric Acid Salt], for which, in assay [1], the IC50 worked out at 175 nM and the “ratio IC50 hV2/hV1a” value is on record as 182.9. For the same compound, in assay [2], the IC50 came to 32000 nM.

As to `CN(CC1CC1)C(=O)c1ncccc1-n1cnc(Cn2nc(-c3ccc(Cl)cc3)n(C[C@H](O)C(F)(F)F)c2=O)n1` [Example 454, 3-[3-({3-(4-Chlorophenyl)-5-oxo-4-[(2S)-3,3,3-trifluoro-2-hydroxypropyl]-4,5-dihydro-1H-1,2,4-triazol-1-yl}methyl)-1H-1,2,4-triazol-1-yl]-N-(cyclopropylmethyl)-N-methylpyridine-2-carboxamide], the IC50 in assay [1] turned out to be 12 nM; in assay [2], 4050 nM. For the same compound, the “ratio IC50 hV2/hV1a” value in assay [1] is listed as 337.5.

For `CC1(NC(=O)c2ncccc2-n2cnc(Cn3nc(-c4ccc(Cl)cc4)n(C[C@H](O)C(F)(F)F)c3=O)n2)CC1` [Example 455, 3-[3-({3-(4-Chlorophenyl)-5-oxo-4-[(2S)-3,3,3-trifluoro-2-hydroxypropyl]-4,5-dihydro-1H-1,2,4-triazol-1-yl}methyl)-1H-1,2,4-triazol-1-yl]-N-(1-methylcyclopropyl)pyridine-2-carboxamide], in assay [1], the 50% inhibitory concentration (IC50) was 4.4 nM and the “ratio IC50 hV2/hV1a” value is listed as 272.7. In addition, the IC50 in assay [2] was found to be 1200 nM.
